Source: ChEMBL document CHEMBL5303766, “Data for DCP probe FHT-2344” (2022)

Experiments:
[1] = target: Dual specificity mitogen-activated protein kinase kinase 1 (Homo sapiens) (UniProt Q02750); assay: MAP2K1 SGC Tm panel (DSF); settings: for ΔTm: Compound concentration 10.0 uM
[2] = target: Alpha-2A adrenergic receptor (Homo sapiens) (UniProt P08913); settings: Compound concentration 10.0 uM
[3] = target: T1, Ferrochelatase, mitochondrial (Homo sapiens) (UniProt P22830); assay: FECH SGC Tm panel (DSF); settings: for ΔTm: Compound concentration 10.0 uM
T1 sequence (whole entry): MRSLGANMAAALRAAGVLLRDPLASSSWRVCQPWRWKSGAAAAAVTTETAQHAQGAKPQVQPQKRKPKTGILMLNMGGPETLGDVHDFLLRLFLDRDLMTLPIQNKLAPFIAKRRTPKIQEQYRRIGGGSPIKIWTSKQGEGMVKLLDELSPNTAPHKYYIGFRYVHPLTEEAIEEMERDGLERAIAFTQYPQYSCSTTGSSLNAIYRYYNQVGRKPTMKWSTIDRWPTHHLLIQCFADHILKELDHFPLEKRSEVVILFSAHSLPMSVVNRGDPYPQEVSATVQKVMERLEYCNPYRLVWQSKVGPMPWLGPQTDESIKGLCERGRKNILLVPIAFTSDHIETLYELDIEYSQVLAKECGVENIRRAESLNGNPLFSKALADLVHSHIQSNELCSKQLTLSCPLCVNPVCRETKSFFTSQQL

[4] = target: Maternal embryonic leucine zipper kinase (Homo sapiens) (UniProt Q14680); assay: MELK SGC Tm panel (DSF); settings: for ΔTm: Compound concentration 10.0 uM
[5] = target: Histamine H3 receptor (Homo sapiens) (UniProt Q9Y5N1); settings: Compound concentration 10.0 uM
[6] = target: 5-hydroxytryptamine receptor 2A (Homo sapiens) (UniProt P28223); settings: Compound concentration 10.0 uM
[7] = target: Ephrin type-A receptor 5 (Homo sapiens) (UniProt P54756); assay: EPHA5 SGC Tm panel (DSF); settings: for ΔTm: Compound concentration 10.0 uM
[8] = target: Dual specificity protein kinase CLK1 (Homo sapiens) (UniProt P49759); assay: CLK1 SGC Tm panel (DSF); settings: for ΔTm: Compound concentration 10.0 uM
[9] = target: Fibroblast growth factor receptor 1 (Homo sapiens) (UniProt P11362); assay: FGFR1 SGC Tm panel (DSF); settings: for ΔTm: Compound concentration 10.0 uM
[10] = target: T2, Aurora kinase A (Homo sapiens) (UniProt O14965); assay: STK6 SGC Tm panel (DSF); settings: for ΔTm: Compound concentration 10.0 uM
T2 sequence (whole entry): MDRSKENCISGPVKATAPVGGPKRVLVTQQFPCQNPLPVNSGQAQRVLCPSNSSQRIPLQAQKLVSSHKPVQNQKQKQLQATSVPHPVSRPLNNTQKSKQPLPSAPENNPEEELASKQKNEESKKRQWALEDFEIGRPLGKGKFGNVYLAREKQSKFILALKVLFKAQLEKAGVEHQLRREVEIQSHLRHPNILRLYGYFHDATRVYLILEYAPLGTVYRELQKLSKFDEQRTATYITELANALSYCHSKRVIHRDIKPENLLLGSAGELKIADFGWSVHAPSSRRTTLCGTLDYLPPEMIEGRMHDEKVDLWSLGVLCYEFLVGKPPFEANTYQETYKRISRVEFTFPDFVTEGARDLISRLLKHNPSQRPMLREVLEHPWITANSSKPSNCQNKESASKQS

[11] = target: Casein kinase II subunit alpha (Homo sapiens) (UniProt P68400); assay: CSNK2A1A SGC Tm panel (DSF); settings: for ΔTm: Compound concentration 10.0 uM
[12] = target: Mitogen-activated protein kinase 8 (Homo sapiens) (UniProt P45983); assay: MAPK8 SGC Tm panel (DSF); settings: for ΔTm: Compound concentration 10.0 uM
[13] = target: T3, Dual specificity protein kinase TTK (Homo sapiens) (UniProt P33981); assay: TTK SGC Tm panel (DSF); settings: for ΔTm: Compound concentration 10.0 uM
T3 sequence (whole entry): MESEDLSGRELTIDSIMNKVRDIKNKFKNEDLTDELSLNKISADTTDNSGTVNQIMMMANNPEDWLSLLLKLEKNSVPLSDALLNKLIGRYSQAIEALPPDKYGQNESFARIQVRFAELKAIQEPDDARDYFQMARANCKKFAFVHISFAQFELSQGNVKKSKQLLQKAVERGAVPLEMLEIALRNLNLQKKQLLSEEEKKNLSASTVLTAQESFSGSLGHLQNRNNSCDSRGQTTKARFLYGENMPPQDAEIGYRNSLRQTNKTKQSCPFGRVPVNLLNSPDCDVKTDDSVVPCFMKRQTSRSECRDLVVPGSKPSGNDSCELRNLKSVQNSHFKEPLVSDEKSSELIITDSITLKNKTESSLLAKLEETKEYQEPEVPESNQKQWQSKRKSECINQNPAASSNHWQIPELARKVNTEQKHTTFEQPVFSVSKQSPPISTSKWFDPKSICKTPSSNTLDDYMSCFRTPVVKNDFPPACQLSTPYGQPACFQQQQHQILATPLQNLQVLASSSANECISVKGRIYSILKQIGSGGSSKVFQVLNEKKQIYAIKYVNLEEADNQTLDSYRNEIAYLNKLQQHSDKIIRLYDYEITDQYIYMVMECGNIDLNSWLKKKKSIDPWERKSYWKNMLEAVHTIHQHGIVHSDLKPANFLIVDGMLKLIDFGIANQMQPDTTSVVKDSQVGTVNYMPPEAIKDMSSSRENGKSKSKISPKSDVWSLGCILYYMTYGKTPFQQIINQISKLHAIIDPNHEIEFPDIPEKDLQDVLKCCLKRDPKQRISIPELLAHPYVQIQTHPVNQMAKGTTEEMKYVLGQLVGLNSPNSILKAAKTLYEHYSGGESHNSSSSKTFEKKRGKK

Casein kinase II subunit alpha (Homo sapiens), sequence (P68400 whole entry, looked up): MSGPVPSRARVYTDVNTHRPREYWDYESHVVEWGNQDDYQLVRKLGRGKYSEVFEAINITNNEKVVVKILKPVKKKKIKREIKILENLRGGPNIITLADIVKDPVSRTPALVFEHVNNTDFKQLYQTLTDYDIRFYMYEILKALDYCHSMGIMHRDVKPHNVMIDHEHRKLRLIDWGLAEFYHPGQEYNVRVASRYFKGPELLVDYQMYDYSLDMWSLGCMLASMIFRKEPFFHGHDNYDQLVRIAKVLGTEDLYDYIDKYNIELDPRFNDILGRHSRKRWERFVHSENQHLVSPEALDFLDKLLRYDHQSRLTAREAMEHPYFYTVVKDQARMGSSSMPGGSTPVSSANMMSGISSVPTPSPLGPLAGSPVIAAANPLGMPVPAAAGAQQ
Maternal embryonic leucine zipper kinase (Homo sapiens), sequence (Q14680 whole entry, looked up): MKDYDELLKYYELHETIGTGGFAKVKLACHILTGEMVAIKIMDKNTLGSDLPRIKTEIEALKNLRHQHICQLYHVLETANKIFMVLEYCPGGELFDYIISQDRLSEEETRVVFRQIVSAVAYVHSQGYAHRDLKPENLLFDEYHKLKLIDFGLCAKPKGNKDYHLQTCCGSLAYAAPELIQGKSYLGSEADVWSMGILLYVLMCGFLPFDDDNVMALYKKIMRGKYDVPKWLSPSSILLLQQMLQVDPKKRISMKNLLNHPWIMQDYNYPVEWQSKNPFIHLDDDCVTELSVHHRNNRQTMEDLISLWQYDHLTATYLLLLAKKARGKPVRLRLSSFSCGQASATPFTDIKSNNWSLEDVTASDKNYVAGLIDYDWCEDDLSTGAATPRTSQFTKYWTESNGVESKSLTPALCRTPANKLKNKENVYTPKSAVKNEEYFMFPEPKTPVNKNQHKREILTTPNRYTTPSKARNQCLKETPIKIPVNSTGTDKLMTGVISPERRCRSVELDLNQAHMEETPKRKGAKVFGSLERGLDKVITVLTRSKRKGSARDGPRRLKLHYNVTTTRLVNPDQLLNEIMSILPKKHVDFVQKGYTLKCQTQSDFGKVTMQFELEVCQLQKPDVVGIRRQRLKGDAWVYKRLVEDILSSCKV
Dual specificity protein kinase CLK1 (Homo sapiens), sequence (P49759 whole entry, looked up): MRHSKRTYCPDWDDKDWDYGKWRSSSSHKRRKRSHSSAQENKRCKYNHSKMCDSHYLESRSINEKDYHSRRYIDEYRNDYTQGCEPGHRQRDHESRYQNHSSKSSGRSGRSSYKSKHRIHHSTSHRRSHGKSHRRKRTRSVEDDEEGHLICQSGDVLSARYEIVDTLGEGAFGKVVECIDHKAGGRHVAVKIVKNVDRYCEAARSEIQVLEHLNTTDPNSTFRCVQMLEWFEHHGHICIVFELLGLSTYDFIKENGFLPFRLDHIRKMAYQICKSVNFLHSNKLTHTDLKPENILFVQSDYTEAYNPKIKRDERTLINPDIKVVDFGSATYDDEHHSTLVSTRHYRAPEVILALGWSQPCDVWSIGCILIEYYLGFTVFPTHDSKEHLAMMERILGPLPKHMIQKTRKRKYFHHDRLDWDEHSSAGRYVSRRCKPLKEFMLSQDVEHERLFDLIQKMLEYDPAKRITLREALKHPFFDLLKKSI
Fibroblast growth factor receptor 1 (Homo sapiens), sequence (P11362 22-822 limits assumed): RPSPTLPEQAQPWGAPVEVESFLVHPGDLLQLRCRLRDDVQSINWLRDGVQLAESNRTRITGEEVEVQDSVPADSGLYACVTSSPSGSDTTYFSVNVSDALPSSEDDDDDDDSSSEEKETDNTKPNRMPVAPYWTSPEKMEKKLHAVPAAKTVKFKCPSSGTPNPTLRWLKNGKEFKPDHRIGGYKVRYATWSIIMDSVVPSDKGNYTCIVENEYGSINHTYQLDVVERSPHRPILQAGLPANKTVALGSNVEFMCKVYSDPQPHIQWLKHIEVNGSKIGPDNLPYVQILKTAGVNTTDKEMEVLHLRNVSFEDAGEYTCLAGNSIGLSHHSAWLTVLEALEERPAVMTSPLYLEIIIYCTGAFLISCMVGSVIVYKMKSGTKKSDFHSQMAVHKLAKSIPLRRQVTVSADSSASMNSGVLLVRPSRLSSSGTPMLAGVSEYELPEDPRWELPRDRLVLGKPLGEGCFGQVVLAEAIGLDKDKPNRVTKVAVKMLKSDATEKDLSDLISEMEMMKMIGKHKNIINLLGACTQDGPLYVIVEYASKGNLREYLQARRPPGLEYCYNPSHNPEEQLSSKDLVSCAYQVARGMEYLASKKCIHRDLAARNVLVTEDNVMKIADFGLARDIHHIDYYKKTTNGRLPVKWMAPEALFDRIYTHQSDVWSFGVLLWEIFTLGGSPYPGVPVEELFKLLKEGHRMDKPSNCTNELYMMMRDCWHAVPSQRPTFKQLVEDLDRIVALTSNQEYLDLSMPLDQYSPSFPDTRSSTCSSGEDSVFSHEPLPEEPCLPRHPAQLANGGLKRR
Dual specificity mitogen-activated protein kinase kinase 1 (Homo sapiens), sequence (Q02750 whole entry): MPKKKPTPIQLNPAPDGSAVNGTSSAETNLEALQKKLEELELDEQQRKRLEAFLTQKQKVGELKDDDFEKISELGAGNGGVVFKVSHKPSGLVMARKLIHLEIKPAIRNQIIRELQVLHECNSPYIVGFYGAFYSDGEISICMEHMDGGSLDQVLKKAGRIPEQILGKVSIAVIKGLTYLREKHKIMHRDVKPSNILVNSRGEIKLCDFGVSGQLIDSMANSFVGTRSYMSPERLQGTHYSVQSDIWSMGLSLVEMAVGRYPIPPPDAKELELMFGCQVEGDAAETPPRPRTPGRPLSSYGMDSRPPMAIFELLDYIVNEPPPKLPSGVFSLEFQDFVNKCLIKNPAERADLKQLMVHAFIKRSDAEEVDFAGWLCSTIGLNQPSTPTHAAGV
Ephrin type-A receptor 5 (Homo sapiens), sequence (P54756 whole entry): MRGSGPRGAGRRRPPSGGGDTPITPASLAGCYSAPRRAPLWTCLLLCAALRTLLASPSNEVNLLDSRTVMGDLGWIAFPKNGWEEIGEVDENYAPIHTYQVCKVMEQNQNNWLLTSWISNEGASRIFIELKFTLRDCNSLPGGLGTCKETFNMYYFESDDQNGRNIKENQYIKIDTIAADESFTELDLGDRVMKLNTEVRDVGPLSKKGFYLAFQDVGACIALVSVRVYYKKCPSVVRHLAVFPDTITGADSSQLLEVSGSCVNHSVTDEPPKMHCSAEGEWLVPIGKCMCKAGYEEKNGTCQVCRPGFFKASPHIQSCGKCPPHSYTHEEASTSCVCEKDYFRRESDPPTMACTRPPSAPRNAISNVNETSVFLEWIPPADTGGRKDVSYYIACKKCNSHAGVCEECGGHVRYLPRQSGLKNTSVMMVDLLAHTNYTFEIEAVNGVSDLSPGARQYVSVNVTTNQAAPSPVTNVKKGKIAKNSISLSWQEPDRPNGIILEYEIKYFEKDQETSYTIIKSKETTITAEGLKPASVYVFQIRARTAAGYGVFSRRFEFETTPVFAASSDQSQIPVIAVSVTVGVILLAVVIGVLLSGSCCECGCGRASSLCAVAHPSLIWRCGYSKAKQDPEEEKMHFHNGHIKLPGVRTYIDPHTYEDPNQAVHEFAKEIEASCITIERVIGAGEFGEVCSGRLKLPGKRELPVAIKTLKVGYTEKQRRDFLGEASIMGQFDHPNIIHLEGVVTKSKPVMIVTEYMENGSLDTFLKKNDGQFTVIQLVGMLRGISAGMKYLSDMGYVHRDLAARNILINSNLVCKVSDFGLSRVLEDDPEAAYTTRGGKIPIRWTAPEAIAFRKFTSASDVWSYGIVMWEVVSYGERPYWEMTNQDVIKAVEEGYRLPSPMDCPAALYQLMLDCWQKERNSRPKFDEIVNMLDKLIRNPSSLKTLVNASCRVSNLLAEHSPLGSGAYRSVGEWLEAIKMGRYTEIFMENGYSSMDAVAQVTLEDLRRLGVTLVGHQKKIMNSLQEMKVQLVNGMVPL
Mitogen-activated protein kinase 8 (Homo sapiens), sequence (P45983 whole entry): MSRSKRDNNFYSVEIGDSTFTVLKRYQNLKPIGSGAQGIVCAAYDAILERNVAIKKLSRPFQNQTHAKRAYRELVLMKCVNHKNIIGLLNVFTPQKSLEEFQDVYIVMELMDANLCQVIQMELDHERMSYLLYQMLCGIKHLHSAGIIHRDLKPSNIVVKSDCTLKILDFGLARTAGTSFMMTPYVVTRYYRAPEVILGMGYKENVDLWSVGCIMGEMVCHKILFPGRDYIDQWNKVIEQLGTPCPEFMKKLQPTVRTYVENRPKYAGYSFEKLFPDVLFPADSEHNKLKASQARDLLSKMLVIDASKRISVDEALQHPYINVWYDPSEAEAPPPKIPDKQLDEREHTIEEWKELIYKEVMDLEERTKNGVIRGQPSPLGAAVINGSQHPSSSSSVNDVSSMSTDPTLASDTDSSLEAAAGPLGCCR
Histamine H3 receptor (Homo sapiens), sequence (Q9Y5N1 whole entry): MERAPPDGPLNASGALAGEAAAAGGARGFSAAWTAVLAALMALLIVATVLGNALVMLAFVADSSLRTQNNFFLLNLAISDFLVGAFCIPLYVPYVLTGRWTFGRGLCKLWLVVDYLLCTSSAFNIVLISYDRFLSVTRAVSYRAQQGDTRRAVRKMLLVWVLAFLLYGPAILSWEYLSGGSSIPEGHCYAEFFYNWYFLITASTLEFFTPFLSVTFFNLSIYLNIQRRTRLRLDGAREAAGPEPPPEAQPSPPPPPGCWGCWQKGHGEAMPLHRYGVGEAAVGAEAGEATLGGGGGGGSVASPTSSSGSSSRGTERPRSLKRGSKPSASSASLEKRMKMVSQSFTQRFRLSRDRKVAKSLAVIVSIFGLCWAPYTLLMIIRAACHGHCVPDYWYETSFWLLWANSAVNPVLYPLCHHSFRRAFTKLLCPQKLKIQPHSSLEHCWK

SMILES | delta Tm Staurosporine positive control [1] | ΔTm [1] | inhibition [2] [%] | delta Tm Staurosporine positive control [3] | ΔTm [3] | delta Tm Staurosporine positive control [4] | ΔTm [4] | inhibition [5] [%] | inhibition [6] [%] | delta Tm Staurosporine positive control [7] | ΔTm [7] | delta Tm Staurosporine positive control [8] | ΔTm [8] | delta Tm Staurosporine positive control [9] | ΔTm [9] | delta Tm Staurosporine positive control [10] | ΔTm [10] | delta Tm Staurosporine positive control [11] | ΔTm [11] | delta Tm Staurosporine positive control [12] | further results
COC[C@H](NC(=O)c1ccn(S(C)(=O)=O)c1)C(=O)Nc1nc(-c2cccc(-c3ccn(C)n3)c2)cs1 | 5.5 | -0.11 | 5.84 | 1.69 | 0.0581 | 14 | -0.053 | 7.45 | 4.18 | 8.98 | 0.13 | 10.9 | 0.489 | 5.65 | -0.0579 | 16.5 | 0.943 | 2.85 | -0.131 | 7.87 | ΔTm [12]: 0.206; delta Tm Staurosporine positive control [13]: 8.8; ΔTm [13]: -1.35
C[C@H](NC(=O)c1cn(C2(C#N)CC2)cn1)C(=O)Nc1nc(-c2cccc(-c3ccn(C)n3)c2)cs1 | 5.5 | -0.126 | 10.5 | 1.69 | -0.558 | 14 | 0.116 | 0.34 | -5.53 | 8.98 | 0.273 | 10.9 | 0.522 | 5.65 | -0.166 | 16.5 | 0.205 | 2.85 | 0.0573 | 7.87 | ΔTm [12]: 0.458; delta Tm Staurosporine positive control [13]: 8.8; ΔTm [13]: -0.371
